Measured values published in US10174120B2, “Methods and compositions for treating solid tumors and enhancing tumor vaccines” (THE TRUSTEES OF THE UNIVERSITY OF PENNSYLVANIA, priority 2007, dated 2019).
“Also recorded” adds a separate entry of the source.

Assays:
ID8 flank tumors [1] = test: ID8 flank tumor model, BQ788 as tumor vaccine adjuvant (tumor growth); format: in vivo, mice
Procedure: (§1) Two injections of 5×10 6th UV irradiated ID8 ovarian cancer cells were injected sub-cutaneously in C57Bl6 mice one week apart. Vaccinated mice and non-vaccinated controls were injected with 5×10^6 ID8 cells in the flank with […] matrigel or intraperitoneally. Tumors were allowed to grow for 2 or 5 weeks as indicated, and then treated with intraperitoneal injections of BQ-788 (300 mcg) or control peptide for 2 weeks.
The murine epithelial ovarian cancer cell line ID8, syngeneic to C57BL/6 mice was cultured in DMEM supplemented with 4% FBS, 13 ITS media supplement (bovine insulin (5 mg/L), human transferrin (5 mg/L), and sodium selenite ([…]); Sigma), and antibiotics.
(§2) Female C57BL/6 mice (8 weeks of age) were injected 3 times […]. with 1×10^6 UV-treated, apoptotic ID8 ovarian cancer cells (resuspended in 500 microliter (mcL) DMEM without supplements) in the flank. For the orthotopic, intraperitoneal model, mice were injected i.p. with 5×10^6ID8 cells.
To confirm that ETRB plays a role in inhibiting T cell homing to human ovarian cancers, the ID8 syngeneic mouse model of ovarian cancer was utilized. This model responds modestly to potent dendritic cell (DC) vaccination. Strong expression of ETRB was detected in tumor endothelium in ID8 flank tumors by IHC (FIG. 7). […]

ID8 flank tumors [2] = test: T cell infiltration into ID8 flank tumors (IHC, flow cytometry); format: in vivo, mice
Procedure: as §1
FACS analysis was performed using APC-CD45 (BD Pharmingen), PE-anti CD3, FITC anti CD4, and Biotin anti-CD8 coupled with streptavid PE-Cy7.
(§3) To confirm that ETRB plays a role in inhibiting T cell homing to human ovarian cancers, the ID8 syngeneic mouse model of ovarian cancer was utilized. This model responds modestly to potent dendritic cell (DC) vaccination. Strong expression of ETRB was detected in tumor endothelium in ID8 flank tumors by IHC (FIG. 7). Mice were vaccinated with a suboptimal preventive vaccine, containing UV-treated ID8 cells, which results in induction of systemic tumor-reactive interferon-gamma secreting T cells without significant delay in tumor growth Following vaccination, mice were inoculated with flank tumors, which were allowed to engraft for 2 or 5 weeks, and then mice were treated i.p. with the ETRB antagonist peptide, BQ-788, […] (SEQ ID No: 90), every 2nd day for 2 weeks or with control peptide that was a scrambled version of the above peptide. Additional controls included non-vaccinated animals treated with BQ-788 or control peptide. To confirm that the above vaccination scheme results in significant increase in the frequency of systemic tumor-reactive T cells, CD3^+/CD8^+ splenocytes from vaccinated animals treated with BQ-788 or control peptide, and from non-vaccinated mice, were labeled with CFSE and incubated with DC pulsed with UV-radiated ID8 for 6 days to assess proliferation. […] Proliferation of lymphocytes from vaccinated mice treated with BQ-788 or control peptide was similar.
Tumor growth delay was not observed in non-vaccinated mice treated with BQ-788 or in vaccinated mice treated with control peptide. […] Flow cytometry from mechanically dissected tumors confirmed the results observed with IHC: In non-vaccinated animals treated with BQ-788 as well as in vaccinated animals treated with control peptide, CD3^+ cells represented on average 4% of the cells (range 0.5 to 12%), while vaccinated animals treated with BQ-788, CD3^+ cells represented 15% of the cells (range 8 to 30%), containing both CD4^+ and CD8^+ cells (FIG. 8).

CD3+/CD8+ splenocytes = test: T cell proliferation assay, CFSE-labeled splenocytes with DC pulsed with UV-radiated ID8; format: cell-based, mice; settings: BQ-788 versus control peptide, 6 days with ID8-pulsed DC
Source text: as §3

ID8 cells = test: CTL assay, lysis of ID8 cells by CD3+/CD8+ splenocytes; format: cell-based, mice; settings: splenocytes from vaccinated animals treated with BQ-788
[3] = system: intraperitoneal ID8 cells; test: Orthotopic, intraperitoneal ID8 model of ovarian cancer (ascites, survival); format: in vivo, mice; settings: vaccinated animals, BQ-788 every 2nd day for 2 weeks from two weeks after i.p. ID8, versus control peptide
Procedure: as §1, §2
The impact of BQ-788 on survival in vaccinated animals was also tested in the orthotopic, intraperitoneal ID8 model of ovarian cancer. Following vaccination, mice were injected i.p. with ID8 cells. Two weeks later, animals received either BQ-788 or control peptide every 2nd day for 2 weeks.

HUVEC [4] = test: HUVEC treated with Endothelin and BQ-788: morphology and qRT-PCR; format: cell-based, human; settings: for morphology of HUVEC: BQ-788 in the presence of Endothelin, 6 days
Procedure: qRT-PCR was performed using primers to the 3′ end of transcripts spanning intron-exon boundaries whenever possible for 35 cycles using Sybergreen® (ABI, Foster City, Calif.), with primers at 150 nM concentrations. Primers were 18-24 nucleotides and were designed to have a TM of 59-61° C. All transcripts were confirmed using 3% agarose gel electrophoresis. Gene expression was normalized against β-actin in all studies unless stated otherwise.
(§4) Human vascular endothelial cells (HUVEC) were grown to 70% confluence in EBM media then treated with 50 nM Endothelin receptor B inhibitor BQ-788 (American peptide), or 2.5 nm Endothelin alone or in the presence of either 50 nm Endothelin receptor A inhibitor BQ123 (American peptide), or 50 nM Endothelin receptor B inhibitor BQ-788. Alternatively cells were treated with BQ-788 alone. Media was changed every 48 hrs for a total of 6 days. After 6 days cells were harvested for RNA, flow cytometry or incubated activated T cells. T cells were activated for 48 hours with either 5 ng/ml PMA […] or CD3 and CD28 beads. After activation T cells were labeled with CFSE and then incubated with pretreated endothelial cells for 2 hours with shaking. Cells were then washed 3× with PBS and adhesions was determined using a fluorescent plate reader.
Next, the effect of BQ-788 on human and murine endothelial cells or T cells was tested in the presence or absence of ET-1 ligand. In addition, the effect of endothelin receptor A antagonist BQ123 was tested. […] Moreover, there was a decrease in the expression of VE-Cadherin mRNA in BQ788-treated cells (FIG. 9).

HUVEC [5] = test: Adhesion of activated T cells to pretreated HUVEC; format: cell-based, human; settings: for adherence of activated human T cells to HUVEC: T cells activated with PMA or CD3/CD28, Endothelin plus BQ-788 compared to Endothelin alone, Endothelin and ETRA antagonist, or untreated; for T cell adhesion to HUVEC in the presence of TNF- and ET-1: NO antagonist / NO donor under the same experimental conditions
Procedure: as §4
The ability of activated T cells to adhere to BQ-788-treated HUVEC was also tested. […] T cell adherence to BQ788/Endothelin-treated HUVEC was 40% as effective as TNF-alpha activation of HUVEC. Thus, under the conditions utilized, BQ788 induces expression of ICAM-1 on endothelial cells and leads to increased T cell adhesion to tumor endothelium, playing a role in its increase of intratumoral T cells and enhancement of vaccine efficacy.
(§5) To further test the role of ETRB signaling in adhesion, the effects of NO antagonist L-NAME and NO donor DETANO were tested under the above experimental conditions. […] Thus, ET-1, through ETRB, downregulates the ability of endothelium to respond to inflammatory signals present in the tumor microenvironment such as TNF-α, which is restored by blocking ETRB through BQ788. Further, an NO antagonist abrogated the effects of ET-1, while NO donor reproduced its effect, showing that NO plays a role in the inhibitory effect of ET-1. To further test whether ETRB signaling upregulates NO in endothelial cells, reactive oxidative species (ROS) were quantified in HUVEC.

HUVEC [6] = test: Reactive oxidative species (ROS) quantified in HUVEC; format: cell-based, human; settings: for ROS in HUVEC: exposure to rhET-1, with or without BQ788
Procedure: as §5

## CCCC[C@@H](NC(=O)[C@@H](Cc1cn(C(=O)OC)c2ccccc12)NC(=O)[C@H](CC(C)(C)C)NC(=O)N1[C@H](C)CCC[C@@H]1C)C(=O)O [BQ-788]
ID8 flank tumors [1]; non-vaccinated mice treated with BQ-788
  tumor growth delay: not observed
ID8 flank tumors [1]; vaccinated mice, i.p. BQ-788 every 2nd day for 2 weeks, starting at 2 or at 5 weeks after engraftment
  tumor growth: significant reduction in tumor growth
ID8 flank tumors [2]; BQ788 treated animals as compared to control animals
  numbers of CD3+, CD8+ T cells in tumors, FACS analysis: increased numbers of CD3^+, CD8^+ T cells
ID8 flank tumors [2]; non-vaccinated animals treated with BQ-788
  intratumoral CD8+ T cells (IHC): scarce intratumoral CD8^+ T cells
ID8 flank tumors [2]; non-vaccinated animals treated with BQ-788, stated together with vaccinated animals treated with control peptide
  CD3+ cells as share of the cells of dissected tumors, flow cytometry, average: 4%
ID8 flank tumors [2]; vaccinated animals treated with BQ-788
  CD3+ cells as share of the cells of dissected tumors, flow cytometry: 15%
ID8 flank tumors [2]; vaccinated mice treated with BQ-788
  intratumoral CD8+ T cells (IHC): very strong infiltration by CD8^+ T cells
ID8 flank tumors [2]; vaccinated mice treated with BQ-788, listed as BQ788
  intratumoral CD8+ T cells (IHC): significant numbers of CD8^+ T cells
CD3+/CD8+ splenocytes
  proliferation of lymphocytes from vaccinated mice: similar
ID8 cells
  ID8 cell killing by CD3+/CD8+ splenocytes: robust ID8 cell killing
[3]
  ascites development: developed ascites later
  survival: significant prolongation of survival
HUVEC [4]; BQ788-treated HUVEC
  mRNA levels for ICAM-2, ICAM-3, E-selectin, JAM, CXCL-11, CCL-19, or CCL-21: No specific changes were detected
HUVEC [4]; BQ788-treated HUVEC in the presence of Endothelin
  expression of VE-Cadherin mRNA: decrease; also recorded: decreased expression of VE-Cadherin
HUVEC [4]
  morphology of HUVEC: distinct morphological change
HUVEC [4]; listed as BQ788
  morphology of HUVEC: Morphologic changes
HUVEC [4]; Endothelin and BQ-788 compared to untreated HUVEC, Endothelin alone, or Endothelin plus ETRA antagonist
  increased expression of ICAM-1 mRNA, qRT-PCR: over 7 fold
HUVEC [4]; Endothelin+BQ788-treated HUVEC as compared to Endothelin alone or BQ788 alone
  expression of ICAM1, qRT-PCR (in words): increased expression of ICAM1
HUVEC [5]; BQ788/Endothelin-treated HUVEC
  T cell adherence relative to TNF-alpha activation of HUVEC: 40%
HUVEC [5]
  adherence of activated human T cells to HUVEC: increased adherence
HUVEC [5]; listed as BQ788
  adherence of activated human T cells to HUVEC: increased ability of T cells to adhere
HUVEC [6]; HUVEC exposed to ET-1
  suppression of ROS compared with bacterial LPS: as potent as bacterial LPS
HUVEC [6]
  ROS in HUVEC: abrogated such response to ET-1

## NCCN(CCN)/[N+]([O-])=N/O [DETANO]
HUVEC [5]
  T cell adhesion to HUVEC in the presence of TNF- and ET-1: mimicked the effects of ET-1

## COC(=O)[C@@H](N)CCCNC(=N)N[N+](=O)[O-] [L-NAME]
HUVEC [5]
  T cell adhesion to HUVEC in the presence of TNF- and ET-1: restored T cell adhesion

## CC[C@H](C)[C@H](NC(=O)[C@H](CC(=O)O)NC(=O)[C@H](CC(C)C)NC(=O)[C@H](Cc1c[nH]cn1)NC(=O)[C@@H]1CSSC[C@H](N)C(=O)N[C@@H](CO)C(=O)N[C@H]2CSSC[C@H](NC(=O)[C@H](CCC(=O)O)NC(=O)[C@H](CCCCN)NC(=O)[C@H](CC(=O)O)NC(=O)[C@H](CCSC)NC(=O)[C@H](CC(C)C)NC(=O)[C@H](CO)NC(=O)[C@H](CO)NC2=O)C(=O)N[C@@H](C(C)C)C(=O)N[C@@H](Cc2ccc(O)cc2)C(=O)N[C@@H](Cc2ccccc2)C(=O)N1)C(=O)N[C@H](C(=O)N[C@@H](Cc1c[nH]c2ccccc12)C(=O)O)[C@@H](C)CC [rhET-1]
HUVEC [6]
  ROS in HUVEC: upregulated ROS
